Assays:
[1] = system: MDA-MB-231 human breast cancer cells; assay: Proliferation assay MDA-MB-231 (crystal violet); format: cell-based; settings: Homo sapiens, MDA-MB-231, 96 h, MDA-MB-231 cells, 4 days, median, read-out: Prolif-MDA MB231 IC50 - [mol/l] (median)
In short: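 Cells seeded at 4,000/well in medium with 10% fetal calf serum, dosed after 24 h (0.01-10 micromol/L, 0.1% DMSO) and grown 4 days. Crystal violet staining read at 595 nm, normalised to zero-point plate (0%) and untreated cells (100%); IC50 by 4-parameter fit.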

CDK12 = molecular target: T1, CDK12 (Homo sapiens, UniProt Q9NYV4); assay: CDK12 nuclear protein level: immunofluorescence/high content analysis in CAL-120 cells; format: cell-based; settings: for DC50: CAL-120 cells, 24 h, nuclear CDK12 staining intensity, median, read-out: CDK12 degradation IF DC50 - [mol/l] (median); for (IC50 CDK12 high ATP) to (Degradation DC50 CDK12) ratio: ratio of IC50 CDK12 hATP (2 mM ATP) to DC50 CDK12 (IF, CAL-120)
T1 construct: endogenous in cells; host or cells: CAL-120 human breast cancer cells (DSMZ ACC 459)
In short: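 Cells were exposed to compounds in dose-response for 24 h at 37 °C, then PFA-fixed, immunostained for CDK12 and counterstained with Hoechst before confocal imaging. Nuclear CDK12 intensity was normalized to DMSO and control. DC50 is the concentration giving 50% reduction of nuclear staining.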

T1 sequence (Q9NYV4 whole entry): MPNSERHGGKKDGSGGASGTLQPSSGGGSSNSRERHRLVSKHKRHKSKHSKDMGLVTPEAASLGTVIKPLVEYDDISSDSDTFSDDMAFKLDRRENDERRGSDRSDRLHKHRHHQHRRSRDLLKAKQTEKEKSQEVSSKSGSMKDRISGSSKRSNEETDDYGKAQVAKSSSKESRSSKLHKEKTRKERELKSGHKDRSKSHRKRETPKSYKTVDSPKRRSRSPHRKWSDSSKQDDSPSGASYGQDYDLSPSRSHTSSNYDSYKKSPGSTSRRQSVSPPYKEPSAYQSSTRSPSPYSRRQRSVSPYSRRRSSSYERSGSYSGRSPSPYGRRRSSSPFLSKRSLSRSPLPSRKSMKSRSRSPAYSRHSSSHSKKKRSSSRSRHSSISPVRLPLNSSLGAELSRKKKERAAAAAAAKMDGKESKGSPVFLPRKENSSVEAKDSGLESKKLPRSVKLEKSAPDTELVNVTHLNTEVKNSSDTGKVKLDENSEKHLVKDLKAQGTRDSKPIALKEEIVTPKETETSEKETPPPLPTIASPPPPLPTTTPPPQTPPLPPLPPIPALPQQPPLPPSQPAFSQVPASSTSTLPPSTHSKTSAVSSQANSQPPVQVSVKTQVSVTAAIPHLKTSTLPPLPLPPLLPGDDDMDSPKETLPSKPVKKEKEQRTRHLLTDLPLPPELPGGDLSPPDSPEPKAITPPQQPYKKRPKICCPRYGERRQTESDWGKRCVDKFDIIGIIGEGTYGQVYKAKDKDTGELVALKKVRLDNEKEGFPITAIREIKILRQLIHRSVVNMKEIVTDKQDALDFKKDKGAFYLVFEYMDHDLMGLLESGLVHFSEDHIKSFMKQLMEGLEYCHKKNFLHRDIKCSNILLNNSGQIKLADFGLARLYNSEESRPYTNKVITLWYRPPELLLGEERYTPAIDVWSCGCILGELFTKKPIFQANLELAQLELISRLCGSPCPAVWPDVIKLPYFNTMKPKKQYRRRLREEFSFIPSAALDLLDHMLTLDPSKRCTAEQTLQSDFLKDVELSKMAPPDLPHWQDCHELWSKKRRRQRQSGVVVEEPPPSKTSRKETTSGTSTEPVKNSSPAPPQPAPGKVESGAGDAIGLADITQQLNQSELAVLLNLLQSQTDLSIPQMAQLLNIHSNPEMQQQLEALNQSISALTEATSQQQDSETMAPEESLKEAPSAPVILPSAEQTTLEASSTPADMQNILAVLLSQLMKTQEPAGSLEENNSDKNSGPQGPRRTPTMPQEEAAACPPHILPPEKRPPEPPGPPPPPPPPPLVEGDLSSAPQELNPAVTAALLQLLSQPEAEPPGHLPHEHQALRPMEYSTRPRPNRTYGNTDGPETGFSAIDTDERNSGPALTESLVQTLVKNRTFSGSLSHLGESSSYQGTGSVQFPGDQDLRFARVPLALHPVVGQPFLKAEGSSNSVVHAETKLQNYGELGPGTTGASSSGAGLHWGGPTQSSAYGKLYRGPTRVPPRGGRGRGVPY
T1 sequence (O75909 whole entry partner): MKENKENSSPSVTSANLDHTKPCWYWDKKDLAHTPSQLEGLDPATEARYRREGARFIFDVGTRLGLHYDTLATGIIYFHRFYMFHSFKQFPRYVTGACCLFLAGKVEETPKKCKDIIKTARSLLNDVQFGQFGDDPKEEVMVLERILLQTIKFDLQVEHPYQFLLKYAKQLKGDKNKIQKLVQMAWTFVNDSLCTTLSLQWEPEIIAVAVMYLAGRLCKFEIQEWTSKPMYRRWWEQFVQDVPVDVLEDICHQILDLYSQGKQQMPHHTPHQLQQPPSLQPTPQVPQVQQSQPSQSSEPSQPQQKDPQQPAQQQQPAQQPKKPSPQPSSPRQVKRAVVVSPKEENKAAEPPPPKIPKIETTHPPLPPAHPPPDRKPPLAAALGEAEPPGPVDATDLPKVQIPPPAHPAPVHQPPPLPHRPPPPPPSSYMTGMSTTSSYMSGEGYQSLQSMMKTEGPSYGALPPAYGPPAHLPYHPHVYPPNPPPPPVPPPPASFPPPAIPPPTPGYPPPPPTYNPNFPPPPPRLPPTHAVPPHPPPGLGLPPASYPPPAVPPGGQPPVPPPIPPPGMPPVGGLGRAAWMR

IC50 [1]	DC50 (CDK12)	(IC50 CDK12 high ATP) to (Degradation DC50 CDK12) ratio (CDK12)	Compound
235 nM	41.2 nM	>102	OCCCn1nc(NCc2nc3ccccc3[nH]2)c2ncc(C3CC3)nc21 [Example 60, 3-(3-{[(1H-benzimidazol-2-yl)methyl]amino}-6-cyclopropyl-1H-pyrazolo[3,4-b]pyrazin-1-yl)propan-1-ol]
335 nM	163 nM	>123	COCCCn1nc(NCc2nc3ccccc3[nH]2)c2ncc(C3CC3)nc21 [Example 61, N-[(1H-benzimidazol-2-yl)methyl]-6-cyclopropyl-1-(3-methoxypropyl)-1H-pyrazolo[3,4-b]pyrazin-3-amine]
437 nM	20.5 nM	–	COCCn1nc(NCc2nc3ccccc3[nH]2)c2ncc(C3CC3)nc21 [Example 65, N-[(1H-benzimidazol-2-yl)methyl]-6-cyclopropyl-1-(2-methoxyethyl)-1H-pyrazolo[3,4-b]pyrazin-3-amine]
386 nM	19.4 nM	>1116	OCCn1nc(NCc2nc3ccccc3[nH]2)c2ncc(C3CC3)nc21 [Example 66, 2-(3-{[(1H-benzimidazol-2-yl)methyl]amino}-6-cyclopropyl-1H-pyrazolo[3,4-b]pyrazin-1-yl)ethan-1-ol]
268 nM	21 nM	>937	COC(C)(C)CCn1nc(NCc2nc3ccccc3[nH]2)c2ncc(C3CC3)nc21 [Example 67, N-[(1H-benzimidazol-2-yl)methyl]-6-cyclopropyl-1-(3-methoxy-3-methylbutyl)-1H-pyrazolo[3,4-b]pyrazin-3-amine]
645 nM	29.1 nM	>687	CN(C)CCn1nc(NCc2nc3ccccc3[nH]2)c2ncc(C3CC3)nc21 [Example 68, N-[(1H-benzimidazol-2-yl)methyl]-6-cyclopropyl-1-[2-(dimethylamino)ethyl]-1H-pyrazolo[3,4-b]pyrazin-3-amine]
311 nM	99.4 nM	>101	CC(C)(O)Cn1nc(NCc2nc3ccccc3[nH]2)c2ncc(C3CC3)nc21 [Example 69, 1-(3-{[(1H-benzimidazol-2-yl)methyl]amino}-6-cyclopropyl-1H-pyrazolo[3,4-b]pyrazin-1-yl)-2-methylpropan-2-ol]
174 nM	10.8 nM	–	O[C@H]1C[C@H](Cn2nc(NCc3nc4ccccc4[nH]3)c3ncc(C4CC4)nc32)C1 [Example 70, trans-3-[(3-{[(1H-benzimidazol-2-yl)methyl]amino}-6-cyclopropyl-1H-pyrazolo[3,4-b]pyrazin-1-yl)methyl]cyclobutan-1-ol]
70.8 nM	27.7 nM	–	O[C@H]1C[C@@H](Cn2nc(NCc3nc4ccccc4[nH]3)c3ncc(C4CC4)nc32)C1 [Example 71, cis-3-[(3-{[(1H-benzimidazol-2-yl)methyl]amino}-6-cyclopropyl-1H-pyrazolo[3,4-b]pyrazin-1-yl)methyl]cyclobutan-1-ol]
109 nM	18.7 nM	>536	OC1(Cn2nc(NCc3nc4ccccc4[nH]3)c3ncc(C4CC4)nc32)CCC1 [Example 72, 1-[(3-{[(1H-benzimidazol-2-yl)methyl]amino}-6-cyclopropyl-1H-pyrazolo[3,4-b]pyrazin-1-yl)methyl]cyclobutan-1-ol]
141 nM	112 nM	>90	OC1(Cn2nc(NCc3nc4ccccc4[nH]3)c3ncc(C4CC4)nc32)CCCC1 [Example 73, 1-[(3-{[(1H-benzimidazol-2-yl)methyl]amino}-6-cyclopropyl-1H-pyrazolo[3,4-b]pyrazin-1-yl)methyl]cyclopentan-1-ol]
251 nM	15.1 nM	>660	OCC1(Cn2nc(NCc3nc4ccccc4[nH]3)c3ncc(C4CC4)nc32)CCC1 [Example 74, {1-[(3-{[(1H-benzimidazol-2-yl)methyl]amino}-6-cyclopropyl-1H-pyrazolo[3,4-b]pyrazin-1-yl)methyl]cyclobutyl}methanol]
376 nM	135 nM	>148	c1ccc2[nH]c(CNc3nn(CC4CCC4)c4nc(C5CC5)cnc34)nc2c1 [Example 75, N-[(1H-benzimidazol-2-yl)methyl]-1-(cyclobutylmethyl)-6-cyclopropyl-1H-pyrazolo[3,4-b]pyrazin-3-amine]
124 nM	2.17 nM	>9202	CC(C)(O)CCn1nc(NCc2nc3ccccc3[nH]2)c2ncc(C3CC3)nc21 [Example 76, 4-(3-{[(1H-benzimidazol-2-yl)methyl]amino}-6-cyclopropyl-1H-pyrazolo[3,4-b]pyrazin-1-yl)-2-methylbutan-2-ol]
3000 nM	127 nM	>133	Cc1cnc2c(NCc3nc4ccccc4[nH]3)nn(C3CCN(C)CC3)c2n1 [Example 77, N-[(1H-benzimidazol-2-yl)methyl]-6-methyl-1-(1-methylpiperidin-4-yl)-1H-pyrazolo[3,4-b]pyrazin-3-amine]
